Here are results for 1 cell line from the supplement of paper PMC10307832.

Common to all, as to test: relative viability (nuclei count vs DMSO), 5 days (fraction); higher = more cells survive
Compound in test [1]: CC1CC(=O)N(C2=CN=C(N=C2N1C3CCCC3)NC4=C(C=C(C=C4)C(=O)NC5CCN(CC5)C)OC)C [NPK76-II-72-1] + Cc1cc(Nc2cc(N3CCN(C)CC3)nc(Sc3ccc(NC(=O)C4CC4)cc3)n2)n[nH]1 [Tozasertib] (partner 0.1 µM)
Summed up: (§1)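 One day after seeding in 1536-well plates, lung cancer cell lines were dosed by pin tool. Dosing was either single-drug or a fixed anchor-drug dose plus five library-drug doses (not always all listed) in √10 steps. After 5 days, nuclei were stained in one fix-and-stain step and counted on 4× images, and relative viability is the nuclei count of treated wells over that of vehicle wells, given as the median of duplicate plates.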

Compound in the test “BI-2536 + Dasatinib”: CC[C@@H]1C(=O)N(C)c2cnc(Nc3ccc(C(=O)NC4CCN(C)CC4)cc3OC)nc2N1C1CCCC1 [BI-2536] + Cc1nc(Nc2ncc(C(=O)Nc3c(C)cccc3Cl)s2)cc(N2CCN(CCO)CC2)n1 [Dasatinib] (partner 0.075 µM)
Summed up:
as §1

Compound in the test “BI-2536 + Olaparib”: CC[C@@H]1C(=O)N(C)c2cnc(Nc3ccc(C(=O)NC4CCN(C)CC4)cc3OC)nc2N1C1CCCC1 [BI-2536] + O=C(c1cc(Cc2n[nH]c(=O)c3ccccc23)ccc1F)N1CCN(C(=O)C2CC2)CC1 [Olaparib] (partner 8 µM)
An outline of the steps: as §1

Compound in the test “BI-2536 + Bortezomib”: CC[C@@H]1C(=O)N(C)c2cnc(Nc3ccc(C(=O)NC4CCN(C)CC4)cc3OC)nc2N1C1CCCC1 [BI-2536] + CC(C)C[C@H](NC(=O)[C@H](Cc1ccccc1)NC(=O)c1cnccn1)B(O)O [Bortezomib] (partner 0.002 µM)
An outline of the steps:
as §1

Regarding UMC-11, the relative viability in test [1] (first compound 0.01 µM) turned out to be 0.197; in test [1] (first compound 0.03162 µM), 0.186; in test [1] (first compound 0.1 µM), 0.197; in test [1] (first compound 1 µM) it was 0.205; in the test with BI-2536 + Dasatinib (first compound 0.01 µM), 0.432; in the test with BI-2536 + Dasatinib (first compound 0.03162 µM) it was 0.243. Further, the relative viability with BI-2536 + Dasatinib (first compound 0.1 µM) was found to be 0.141; with BI-2536 + Dasatinib (first compound 0.3162 µM) it was 0.183; with BI-2536 + Dasatinib (first compound 1 µM), 0.158; with BI-2536 + Olaparib (first compound 0.01 µM) it was 0.389; with BI-2536 + Olaparib (first compound 0.03162 µM) it was 0.414; with BI-2536 + Olaparib (first compound 0.1 µM), 0.251. The relative viability with BI-2536 + Olaparib (first compound 0.3162 µM) worked out at 0.218; with BI-2536 + Olaparib (first compound 1 µM) it was 0.209; with BI-2536 + Bortezomib (first compound 0.01 µM), 0.601; with BI-2536 + Bortezomib (first compound 0.03162 µM), 0.414; with BI-2536 + Bortezomib (first compound 0.1 µM) it was 0.175; in the test with BI-2536 + Bortezomib (first compound 0.3162 µM) it was 0.134. Moreover, in the test with BI-2536 + Bortezomib (first compound 1 µM), the relative viability was determined as 0.104.
